Results as given in patent US11866450B2, “Modulators of Cystic Fibrosis Transmembrane Conductance regulator, pharmaceutical compositions, methods of treatment, and process for making the modulators” (priority 2018, dated 2024).

Molecular target: CFTR-mediated chloride transport (Homo sapiens, UniProt P13569)
Assay type: cell-based
Conditions: enteroid cells incubated with test compound 18-24 hours, acute 10 μM forskolin and 300 nM Compound III; for Max. Activity: % of chloride transport with 3 μM Compound A, 3 μM Compound II and 300 nM acute Compound III triple combination control
How it was run: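 Human intestinal enteroid cells incubated with compound 18–24 h at 37° C., then membrane potential dye (FLIPR) read 15 min after chloride-free stimulation with 10 μM forskolin, 100 μM IBMX and 300 nM Compound III. AUC expressed as % of triple-combination control (3 μM Compound A, 3 μM Compound II, 300 nM Compound III).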

CFTR-mediated chloride transport, sequence (P13569 whole entry, looked up): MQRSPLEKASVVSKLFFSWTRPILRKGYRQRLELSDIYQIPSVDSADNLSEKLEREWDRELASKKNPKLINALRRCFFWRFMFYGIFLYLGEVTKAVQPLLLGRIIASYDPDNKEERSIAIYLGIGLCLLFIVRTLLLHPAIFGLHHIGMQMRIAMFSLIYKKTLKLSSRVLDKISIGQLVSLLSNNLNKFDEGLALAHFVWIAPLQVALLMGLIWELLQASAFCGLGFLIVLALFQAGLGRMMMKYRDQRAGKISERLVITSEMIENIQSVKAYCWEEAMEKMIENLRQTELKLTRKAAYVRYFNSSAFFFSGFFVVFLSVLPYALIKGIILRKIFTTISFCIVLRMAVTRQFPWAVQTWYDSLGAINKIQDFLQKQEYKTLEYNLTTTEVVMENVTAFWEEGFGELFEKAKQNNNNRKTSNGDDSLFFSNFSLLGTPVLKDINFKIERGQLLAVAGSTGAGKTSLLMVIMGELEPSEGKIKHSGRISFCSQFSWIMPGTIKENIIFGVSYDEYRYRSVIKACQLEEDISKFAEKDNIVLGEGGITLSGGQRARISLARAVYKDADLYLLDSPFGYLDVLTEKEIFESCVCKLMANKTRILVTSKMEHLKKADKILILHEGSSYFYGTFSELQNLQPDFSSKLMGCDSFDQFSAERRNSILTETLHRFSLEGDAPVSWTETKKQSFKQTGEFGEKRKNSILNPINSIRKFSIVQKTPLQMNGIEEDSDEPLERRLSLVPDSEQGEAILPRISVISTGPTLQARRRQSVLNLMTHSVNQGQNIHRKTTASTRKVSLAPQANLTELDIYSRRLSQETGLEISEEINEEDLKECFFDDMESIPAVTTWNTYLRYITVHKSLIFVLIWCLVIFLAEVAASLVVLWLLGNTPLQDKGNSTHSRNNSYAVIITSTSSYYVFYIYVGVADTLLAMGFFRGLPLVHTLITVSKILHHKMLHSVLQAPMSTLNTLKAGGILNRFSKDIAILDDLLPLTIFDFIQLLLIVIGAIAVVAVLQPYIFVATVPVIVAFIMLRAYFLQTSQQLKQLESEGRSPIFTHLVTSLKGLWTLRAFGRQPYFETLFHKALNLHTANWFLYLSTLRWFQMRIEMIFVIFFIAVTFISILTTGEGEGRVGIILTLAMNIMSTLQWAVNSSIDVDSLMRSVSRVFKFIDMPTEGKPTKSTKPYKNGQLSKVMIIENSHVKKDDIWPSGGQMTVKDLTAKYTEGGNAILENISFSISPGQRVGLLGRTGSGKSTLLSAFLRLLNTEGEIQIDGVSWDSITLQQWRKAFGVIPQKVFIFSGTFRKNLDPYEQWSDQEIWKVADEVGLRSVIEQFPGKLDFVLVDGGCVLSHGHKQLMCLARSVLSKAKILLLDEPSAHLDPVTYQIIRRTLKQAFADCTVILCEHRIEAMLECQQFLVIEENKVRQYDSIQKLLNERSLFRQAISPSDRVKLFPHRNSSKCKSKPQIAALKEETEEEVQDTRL

SMILES | EC50 | Max. Activity
[2H]c1ccc2nc1NCCC[C@@H]1CN(c3nc(-n4ccc(OCCC5C6(CC6)C56CC6)n4)ccc3C(=O)NS2(=O)=O)C(C)(C)C1 [Compound 300, (14S)-8-[3-(2-{dispiro[2.0.2.1]heptan-7-yl}ethoxy)-1H-pyrazol-1-yl]-12,12-dimethyl(20-deuterio)-2λ^6-thia-3,9,11,18,23-pentaazatetracyclo[17.3.1.111,14.05,10]tetracosa-1(23),5,7,9,19,21-hexaene-2,2,4-trione] | < 1000 nM | +++ (+++ is >60%)
CC1(C)C[C@H]2CCCCNc3ccc(cn3)S(=O)(=O)NC(=O)c3ccc(-n4ccc(OCCC5(C(F)(F)F)CC5)n4)nc3N1C2 (single isomer, unassigned) [Compound 67, 12,12-dimethyl-8-(3-{2-[1-(trifluoromethyl)cyclopropyl]ethoxy}-1H-pyrazol-1-yl)-2λ^6-thia-3,9,11,19,21-pentaazatetracyclo[18.2.2.111,14.05,10]pentacosa-1(23),5,7,9,20(24),21-hexaene-2,2,4-trione] | < 1000 nM | +++ (+++ is >60%)
CC1(C)C[C@H]2CCNc3cccc(n3)S(=O)(=O)NC(=O)c3ccc(-n4ccc(OCC5(C(F)(F)F)CC5)n4)nc3N1C2 (single isomer, unassigned) [Compound 6, 7,7-dimethyl-11-(3-{[1-(trifluoromethyl)cyclopropyl]methoxy}-1H-pyrazol-1-yl)-17λ^6-thia-2,8,10,16,22-pentaazatetracyclo[16.3.1.1(5,8).0(9,14)]tricosa-1(21),9(14),10,12,18(22),19-hexaene-15,17,17-trione] | < 1000 nM | +++ (+++ is >60%)
CC1(C)C[C@H]2CCCn3ccc(n3)S(=O)(=O)NC(=O)c3ccc(-n4ccc(OCCC5(C(F)(F)F)CC5)n4)nc3N1C2 [Compound 84, (18R)-20,20-Dimethyl-4-(3-{2-[1-(trifluoromethyl)cyclopropyl]ethoxy}-1H-pyrazol-1-yl)-10λ^6-thia-1,3,9,14,22-pentaazatetracyclo[16.2.1.111,14.02,7]docosa-2,4,6,11(22),12-pentaene-8,10,10-trione] | > 3000 nM | + (+ is <30%)
CC1(C)C[C@@H]2CCCNc3cccc(n3)S(=O)(=O)NC(=O)c3ccc(N4CC[C@H](OCCCC5(C(F)(F)F)CC5)C4=O)nc3N1C2 (single isomer, unassigned) [Compound 242] | < 1000 nM | ++ (++ is 30-60%)
CC1(C)C[C@H]2CCCn3ccc(n3)S(=O)(=O)NC(=O)c3ccc(-n4ccc(OCCC5C(C)(C)C5(C)C)n4)nc3N1C2 (single isomer, unassigned) [Compound 207, 20,20-dimethyl-4-{3-[2-(2,2,3,3-tetramethylcyclopropyl)ethoxy]-1H-pyrazol-1-yl}-10λ^6-thia-1,3,9,14,22-pentaazatetracyclo[16.2.1.111,14.02,7]docosa-2(7),3,5,11(22),12-pentaene-8,10,10-trione] | < 1000 nM | +++ (+++ is >60%)
CC1(C)C[C@H]2CCCNc3cccc(n3)S(=O)(=O)NC(=O)c3ccc(-n4ccc(OCC5C6(CC6)C56CC6)n4)nc3N1C2 (single isomer, unassigned) [Compound 107, 8-[3-({dispiro[2.0.2.1]heptan-7-yl}methoxy)-1H-pyrazol-1-yl]-12,12-dimethyl-2λ^6-thia-3,9,11,18,23-pentaazatetracyclo[17.3.1.111,14.05,10]tetracosa-1(22),5,7,9,19(23),20-hexaene-2,2,4-trione] | < 1000 nM | +++ (+++ is >60%)
CC1(C)CC[C@H]2CCCOc3cccc(c3)S(=O)(=O)NC(=O)c3ccc(-n4ccc(OCCC5(C(F)(F)F)CC5)n4)nc3N21 (single isomer, unassigned) [Compound 8, 12,12-dimethyl-8-(3-{2-[1-(trifluoromethyl)cyclopropyl]ethoxy}-1H-pyrazol-1-yl)-19-oxa-2λ^6-thia-3,9,11-triazatetracyclo[18.3.1.05,10.011,15]tetracosa-1(24),5(10),6,8,20,22-hexaene-2,2,4-trione] | > 3000 nM | + (+ is <30%)
